What was measured:
15-PGDH = 15-PGDH (Homo sapiens (Human), UniProt P15428); experiment: Detection of 15-PGDH enzyme activity; type: biochemical; details: 15-PGDH enzyme inhibitory activity; substrates β-NAD and PGF2α
From the text: The formula was shown below: Y=Bottom+(Top-Bottom)/(1+10∧((LogIC50−X)*HillSlope)), wherein X is a log value of a concentration of the compound, and Y is inhibition rate %.

A549 cells = experiment: Assay of intracellular PGE2 up-regulatory activity; type: cell-based; details: Homo sapiens, IL-1β induced, 8 h, relative to positive control group; for activity at 0.01 µM: 10 nM compound, read-out: PGE2 upregulation rate at 10 nM compound concentration; for activity at 0.3 µM: 300 nM compound, read-out: PGE2 upregulation rate at 300 nM compound concentration
Experimental: • a) A549 cells were inoculated in the 24-well plate, and after cell adhesion, IL-1β was added thereto for 16 h of stimulation to induce COX2 expression and PGE2 production. • b) A solution of the compound to be tested was prepared with the culture medium and gradiently diluted to 3 concentrations of 10 nM, 300 nM and 10,000 nM or 7 concentrations of 0.64 nM, 3.2 nM, 16 nM, 80 nM, 400 nM, 2000 nM and 10,000 nM, and meanwhile the positive control group (only IL-1β was added to the cells for induction) and negative control group (only cells were added in the wells without any treatment) were set up. The cell supernatants were collected after 8 h of action, in which the positive control group was induced by IL-1β without treatment of the compounds, and the negative control group was neither stimulated by IL-1β, nor treated with the compounds. • c) The PGE2 content of the samples was determined by Prostaglandin E2 Kit, and the fluorescence signal was detected by a multifunctional microplate reader (Ex/Em=337/620, 337/665).
• a) A standard curve was plotted with the PGE2 standard in the Prostaglandin E2 Kit, and the PGE2 concentration was calculated by substituting with the fluorescence signal of the sample. • b) The PGE2 upregulation rate % was calculated by using the following formula: • PGE2 upregulation rate %=(PGE2 concentration of sample group/PGE2 concentration of positive control group)×100%.

15-PGDH, sequence (P15428 whole entry): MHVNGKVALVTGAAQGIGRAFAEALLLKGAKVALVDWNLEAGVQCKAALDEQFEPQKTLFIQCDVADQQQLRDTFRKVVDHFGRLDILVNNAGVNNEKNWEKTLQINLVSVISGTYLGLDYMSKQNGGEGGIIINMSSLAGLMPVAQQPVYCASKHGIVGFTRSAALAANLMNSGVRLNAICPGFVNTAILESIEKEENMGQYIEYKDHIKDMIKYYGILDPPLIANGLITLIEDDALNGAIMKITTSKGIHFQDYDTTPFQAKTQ

| SMILES | IC50 (15-PGDH) [nM] | activity at 0.01 µM (A549 cells) [%] | activity at 0.3 µM (A549 cells) [%] |
| --- | --- | --- | --- |
| Nc1c(C(=O)N2CCCCC2)sc2nc(-c3ccccc3)cnc12 [Example 1, (7-amino-3-phenylthieno[2,3-b]pyrazin-6-yl) (piperidin-1-yl) methanone] | 3 to 10 | – | – |
| Nc1c(C(=O)N2CCCCC2)sc2nc(-c3ccc4ncoc4c3)cnc12 [Example 2, (7-amino-3-(benzo[d]oxazol-6-yl)thieno[2,3-b]pyrazin-6-yl) (piperidin-1-yl) methanone] | 0.5 to 3 | 200 | 348 |
| Nc1c(C(=O)N2CCC(F)CC2)sc2nc(-c3ccccc3)cnc12 [Example 3, (7-amino-3-phenylthieno[2,3-b]pyrazin-6-yl) (4-fluoropiperidin-1-yl) methanone] | 10 to 25 | – | – |
| Nc1c(C(=O)N2CCCCCC2)sc2nc(-c3ccccc3)cnc12 [Example 4] | 10 to 25 | – | – |
| Nc1c(C(=O)N2CCCCC2)sc2nc(-c3cccs3)cnc12 [Example 5] | 0.5 to 3 | 451 | – |
| Nc1c(C(=O)N2CCCCC2)sc2nc(-c3cncnc3)cnc12 [Example 6] | 0.5 to 3 | 412 | 450 |
| Nc1c(C(=O)N2CCCCC2)sc2nc(-c3cncs3)cnc12 [Example 7] | 0.5 to 3 | 479 | 758 |
| Cn1ccc(-c2cnc3c(N)c(C(=O)N4CCCCC4)sc3n2)n1 [Example 8] | 3 to 10 | – | – |
| Nc1c(C(=O)N2CCCCC2)sc2nc(-c3ccn[nH]3)cnc12 [Example 9] | 3 to 10 | – | – |
| Nc1c(C(=O)N2CCCCC2)sc2nc(-c3ccc4c(c3)OCCO4)cnc12 [Example 10] | 0.5 to 3 | – | 206 |
| Cc1noc(C)c1-c1cnc2c(N)c(C(=O)N3CCCCC3)sc2n1 [Example 11] | 0.5 to 3 | 990 | – |
| Nc1c(C(=O)N2CCCCC2)sc2nc(-c3ccc4nccnc4c3)cnc12 [Example 12] | 0.5 to 3 | – | 170 |
| Nc1ccc(-c2cnc3c(N)c(C(=O)N4CCCCC4)sc3n2)cn1 [Example 13] | 0.5 to 3 | – | 207 |
| Nc1c(C(=O)N2CCCCC2)sc2nc(-c3ccc4nccn4c3)cnc12 [Example 15] | 0.5 to 3 | – | 168 |
| Nc1c(C(=O)N2CCSCC2)sc2nc(-c3ccccc3)cnc12 [Example 16] | 10 to 25 | – | – |
| Cn1cc(-c2cnc3c(N)c(C(=O)N4CCCCC4)sc3n2)ccc1=O [Example 17] | 0.5 to 3 | – | – |
| Cn1ncc2cc(-c3cnc4c(N)c(C(=O)N5CCCCC5)sc4n3)ccc21 [Example 18] | 3 to 10 | – | – |
| Nc1c(C(=O)N2CCCCC2)sc2nc(-c3ccc(N4CCOCC4)nc3)cnc12 [Example 19] | 3 to 10 | – | – |
| COc1ccc(-c2cnc3c(N)c(C(=O)N4CCCCC4)sc3n2)cn1 [Example 20] | 0.5 to 3 | – | – |

| SMILES | IC50 (15-PGDH) [nM] | activity at 0.01 µM (A549 cells) [%] | activity at 0.3 µM (A549 cells) [%] |
| --- | --- | --- | --- |
| Nc1c(C(=O)N2CCCCC2)sc2nc(-c3ccnc(F)c3)cnc12 [Example 21] | < 0.5 | – | 211 |
| Nc1c(C(=O)N2CCCCC2)sc2nc(-c3ccc4ncccc4c3)cnc12 [Example 22] | 0.5 to 3 | 282 | 329 |
| Nc1c(C(=O)N2CCCCC2)sc2nc(-c3ccc4ncsc4c3)cnc12 [Example 23] | < 0.5 | 254 | 375 |
| Nc1c(C(=O)N2CCCCC2)sc2nc(-c3cnc(N4CCOCC4)nc3)cnc12 [Example 24] | < 0.5 | – | 310 |
| CN(C)c1ncc(-c2cnc3c(N)c(C(=O)N4CCCCC4)sc3n2)cn1 [Example 25] | < 0.5 | – | 276 |
| Nc1c(C(=O)N2CCCCC2)sc2nc(-c3cncc4ccccc34)cnc12 [Example 26] | 0.5 to 3 | 499 | – |
| Nc1c(C(=O)N2CCCCC2)sc2nc(-c3ccncc3)cnc12 [Example 27] | 0.5 to 3 | – | – |
| CN1CCN(c2ncc(-c3cnc4c(N)c(C(=O)N5CCCCC5)sc4n3)cn2)CC1 [Example 28] | 0.5 to 3 | – | 318 |
| Nc1c(C(=O)N2CCCCC2)sc2nc(-c3cnc4[nH]ccc4c3)cnc12 [Example 29] | 0.5 to 3 | – | – |
| Cc1cc(-c2cnc3c(N)c(C(=O)N4CCCCC4)sc3n2)ccn1 [Example 30] | 0.5 to 3 | – | 341 |
| Nc1c(C(=O)N2CCCCC2)sc2nc(-c3cnc4ccccc4c3)cnc12 [Example 31] | 0.5 to 3 | – | – |
| Nc1c(C(=O)N2CCCCC2)sc2nc(-c3cccnc3)cnc12 [Example 32] | 3 to 10 | 530 | – |
| Nc1ncc(-c2cnc3c(N)c(C(=O)N4CCCCC4)sc3n2)cn1 [Example 33] | < 0.5 | 393 | 754 |
| Nc1c(C(=O)N2CCCCC2)sc2nc(-c3c(Cl)cccc3Cl)cnc12 [Example 34] | 0.5 to 3 | – | – |
| Nc1c(C(=O)N2CCCCC2)sc2nc(-c3ccc4ccccc4c3)cnc12 [Example 35] | 0.5 to 3 | 208 | 231 |
| Cc1ccc(-c2cnc3c(N)c(C(=O)N4CCCCC4)sc3n2)cn1 [Example 36] | 0.5 to 3 | 301 | 384 |
| Nc1c(C(=O)N2CCCCC2)sc2nc(-c3ccnc(C(F)(F)F)c3)cnc12 [Example 37] | 3 to 10 | – | – |
| Nc1c(C(=O)N2CCCCC2)sc2nc(-c3ccc4cccnc4c3)cnc12 [Example 39] | 0.5 to 3 | – | – |
| Nc1c(C(=O)N2CCCCC2)sc2nc(-c3ccc4nc[nH]c4c3)cnc12 [Example 40] | 0.5 to 3 | 233 | 315 |

| SMILES | IC50 (15-PGDH) [nM] | activity at 0.01 µM (A549 cells) [%] | activity at 0.3 µM (A549 cells) [%] |
| --- | --- | --- | --- |
| Nc1c(C(=O)N2CCCCC2)sc2nc(-c3cnc4[nH]ncc4c3)cnc12 [Example 41] | 3 to 10 | – | – |
| Cn1ccc(-c2cnc3c(N)c(C(=O)N4CCCCC4)sc3n2)cc1=O [Example 42] | 0.5 to 3 | – | 204 |
| Nc1c(C(=O)N2CCCCC2)sc2nc(-c3ccc4c(c3)OCO4)cnc12 [Example 43] | 3 to 10 | – | – |
| N#Cc1ncc(-c2cnc3c(N)c(C(=O)N4CCCCC4)sc3n2)cn1 [Example 44] | 3 to 10 | – | – |
| Cn1cc(-c2cnc3c(N)c(C(=O)N4CCCCC4)sc3n2)cn1 [Example 48] | 10 to 25 | – | – |
| Nc1c(C(=O)N2CCC(F)(F)CC2)sc2nc(-c3ccccc3)cnc12 [Example 49] | 50 to 1000 | – | – |
| Nc1c(C(=O)N2CCC(F)(F)C2)sc2nc(-c3ccccc3)cnc12 [Example 50] | 50 to 1000 | – | – |
| Nc1c(C(=O)N2CCOCC2)sc2nc(-c3ccccc3)cnc12 [Example 51] | 50 to 1000 | – | – |
| CN1CCN(C(=O)c2sc3nc(-c4ccccc4)cnc3c2N)CC1 [Example 52] | 50 to 1000 | – | – |
| Nc1c(C(=O)N2CCS(=O)(=O)CC2)sc2nc(-c3ccccc3)cnc12 [Example 53] | 1000 to 5000 | – | – |
| Nc1c(C(=O)N2CCc3ccccc3C2)sc2nc(-c3ccccc3)cnc12 [Example 54] | 50 to 1000 | – | – |
| CC1CN(C(=O)c2sc3nc(-c4ccccc4)cnc3c2N)CC(C)O1 (centres unmarked) [Example 55] | 50 to 1000 | – | – |
| CC1(C)CCN(C(=O)c2sc3nc(-c4ccccc4)cnc3c2N)CC1 [Example 56] | 50 to 1000 | – | – |
| Nc1c(C(=O)N2CCC3(CC2)CC3)sc2nc(-c3ccccc3)cnc12 [Example 57] | 50 to 1000 | – | – |
| Nc1c(C(=O)N2CC[S+]([O-])CC2)sc2nc(-c3ccccc3)cnc12 [Example 58] | > 5000 | – | – |
| Nc1c(C(=O)N2CC3(COC3)C2)sc2nc(-c3ccccc3)cnc12 [Example 59] | > 5000 | – | – |
| COc1ncc(-c2cnc3c(N)c(C(=O)N4CCCCC4)sc3n2)cn1 [Example 60] | < 0.5 | – | – |
| Nc1c(C(=O)N2CCCCC2)sc2nc(-c3cccc4ccccc34)cnc12 [Example 61] | 3 to 10 | – | – |
| Nc1cc(-c2cnc3c(N)c(C(=O)N4CCCCC4)sc3n2)ccn1 [Example 62] | 0.5 to 3 | – | – |

— patent US20250154162A1, “COMPOUND FOR REGULATING AND CONTROLLING 15-PGDH ACTIVITY AND PREPARATION METHOD THEREFOR” (SCINNOHUB PHARMACEUTICAL CO., LTD., priority 2022, published 2025)
